Test results reported in the CheMixHub ionic liquid set.

Assay: xn = mol fraction of the nth substance listed
Conditions: for electrical conductivity: 294.5 K

CC(=O)[O-].CCCC[NH2+]CCO + CCCC[n+]1ccn(C)c1.O=S(=O)([N-]S(=O)(=O)C(F)(F)F)C(F)(F)F
101 kPa
Conditions	viscosity [mPa·s]
283.15 K, x1 = 0.1012	127.4
283.15 K, x1 = 0.6987	1145
283.15 K, x1 = 0.8008	1850
283.15 K, x1 = 1	3634
288.15 K, x1 = 0.3002	164.2
288.15 K, x1 = 0.8008	1170
288.15 K, x1 = 0.901	1735
298.15 K, x1 = 0.2257	78.02
298.15 K, x1 = 0.8008	515
298.15 K, x1 = 0.901	731
298.15 K, x1 = 1	921
303.15 K, x1 = 0.4998	126.1
303.15 K, x1 = 0.8008	356
308.15 K, x1 = 0.3002	56.19
308.15 K, x1 = 1	423
313.15 K, x1 = 0.4998	73.4
313.15 K, x1 = 0.6987	130.9
313.15 K, x1 = 0.8008	182
313.15 K, x1 = 0.901	243.8
313.15 K, x1 = 1	297
318.15 K, x1 = 0.2257	32.2
318.15 K, x1 = 0.6987	98.5
318.15 K, x1 = 0.901	176.6
323.15 K, x1 = 0.6987	75.5
328.15 K, x1 = 0.2257	22.42
328.15 K, x1 = 0.6018	46.47
328.15 K, x1 = 0.901	98
338.15 K, x1 = 0.6987	37.11
343.15 K, x1 = 0.2257	14.05
343.15 K, x1 = 0.4998	20.65
343.15 K, x1 = 0.901	45.6
343.15 K, x1 = 1	51.9
348.15 K, x1 = 0.423	15.42
353.15 K, x1 = 0.901	29.26
353.15 K, x1 = 1	32.6
358.15 K, x1 = 0.3002	9.99
358.15 K, x1 = 0.423	11.46
358.15 K, x1 = 0.4998	12.68
363.15 K, x1 = 0.423	9.98
363.15 K, x1 = 1	21.43
368.15 K, x1 = 0.8008	14.29
368.15 K, x1 = 1	17.63
373.15 K, x1 = 0.3002	6.99
373.15 K, x1 = 0.423	7.73
373.15 K, x1 = 0.4998	8.35
373.15 K, x1 = 1	14.64

CCCCCCCCCCCCCC[P+](CCCCCC)(CCCCCC)CCCCCC.[c-]1c[nH]nn1 + CCCC[n+]1ccn(C)c1.O=S(=O)([N-]S(=O)(=O)C(F)(F)F)C(F)(F)F
100 kPa
Conditions	viscosity [mPa·s]
278.15 K, x2 = 0.2	2422
283.15 K, x2 = 0.1	1490
283.15 K, x2 = 0.722	481
293.15 K, x2 = 0.301	663
298.15 K, x2 = 0.1	486
298.15 K, x2 = 0.388	428
298.15 K, x2 = 0.9	77
303.15 K, x2 = 0.1	353
303.15 K, x2 = 0.301	339
308.15 K, x2 = 0.2	273
313.15 K, x2 = 0.2	205
313.15 K, x2 = 0.388	174
318.15 K, x2 = 0.2	158
318.15 K, x2 = 0.301	147
318.15 K, x2 = 0.8	50
323.15 K, x2 = 0.301	115

CS(C)=O + CCCC[n+]1ccn(C)c1.O=S(=O)([N-]S(=O)(=O)C(F)(F)F)C(F)(F)F
Conditions	electrical conductivity [S/m]
100 kPa, x2 = 0.02028	0.45

100 kPa
Conditions	viscosity [mPa·s]
298.15 K, x1 = 0.5903	13.22
303.15 K, x1 = 0.2885	23.78
303.15 K, x1 = 0.5026	13.9
308.15 K, x1 = 0.5903	9.52
308.15 K, x1 = 1	1.67
313.15 K, x1 = 0.0951	23.09
313.15 K, x1 = 0.2074	19.57
313.15 K, x1 = 0.5903	8.39
313.15 K, x1 = 1	1.53
323.15 K, x1 = 0.9012	2.15

N#CCCCCC#N + CCCC[n+]1ccn(C)c1.O=S(=O)([N-]S(=O)(=O)C(F)(F)F)C(F)(F)F
Conditions	electrical conductivity [S/m]
100 kPa, x2 = 0.02785	0.29

CS(C)=O + CCCC[n+]1ccn(C)c1.O=S(=O)([O-])C(F)(F)F
100 kPa, x2 = 0
Conditions	viscosity [mPa·s]
298.15 K	2.03
303.15 K	1.84
308.15 K	1.67
313.15 K	1.53
318.15 K	1.41
323.15 K	1.3

C[NH2+]CCC=C1c2ccccc2CCc2ccccc21.[Cl-] + CCCC[n+]1ccn(C)c1.[Br-] + O
viscosity [mPa·s], 100 kPa
Conditions	288.15 K	298.15 K	308.15 K	318.15 K
x1 = 0.0001975, x2 = 0.0001801	1.159	0.927	0.763	0.646
x1 = 0.0002159, x2 = 0.00126	1.172	0.944	0.778	0.661
x1 = 0.0002212, x2 = 0.0007201	1.165	0.934	0.77	0.654
x1 = 0.0005439, x2 = 0.0001801	1.169	0.936	0.771	0.655
x1 = 0.0005594, x2 = 0.001259	1.182	0.953	0.787	0.671
x1 = 0.0005644, x2 = 0.0007199	1.176	0.943	0.779	0.664
x1 = 0.0009069, x2 = 0.0007196	1.187	0.952	0.788	0.674
x1 = 0.0009097, x2 = 0.00018	1.18	0.946	0.78	0.664
x1 = 0.0009344, x2 = 0.001259	1.193	0.963	0.796	0.68
x1 = 0.001275, x2 = 0.001258	1.204	0.973	0.805	0.689
x1 = 0.001278, x2 = 0.0001799	1.192	0.956	0.789	0.673
x1 = 0.001293, x2 = 0.0007194	1.199	0.961	0.797	0.682
x1 = 0.001648, x2 = 0.0007191	1.211	0.971	0.806	0.691
x1 = 0.001659, x2 = 0.0001799	1.204	0.967	0.798	0.681
x1 = 0.001665, x2 = 0.001258	1.216	0.984	0.814	0.698
x1 = 0.002, x2 = 0.0001798	1.217	0.978	0.807	0.689
x1 = 0.002031, x2 = 0.0007188	1.224	0.982	0.815	0.699
x1 = 0.002035, x2 = 0.001257	1.229	0.995	0.823	0.707
x1 = 0.002363, x2 = 0.0001797	1.23	0.989	0.816	0.697
x1 = 0.002378, x2 = 0.001257	1.243	1.006	0.832	0.715
x1 = 0.002383, x2 = 0.0007186	1.237	0.993	0.824	0.707
x1 = 0.002737, x2 = 0.0001797	1.244	1	0.826	0.705
x1 = 0.00275, x2 = 0.001256	1.257	1.018	0.842	0.723
x1 = 0.002759, x2 = 0.0007183	1.251	1.005	0.834	0.715
x1 = 0.003096, x2 = 0.001256	1.272	1.03	0.853	0.731
x1 = 0.003103, x2 = 0.0001796	1.258	1.012	0.836	0.713
x1 = 0.00311, x2 = 0.000718	1.265	1.019	0.845	0.723
x1 = 0.003471, x2 = 0.0001795	1.273	1.024	0.847	0.721
x1 = 0.003493, x2 = 0.001255	1.287	1.043	0.864	0.738
x1 = 0.003504, x2 = 0.0007178	1.28	1.033	0.856	0.731
